Where “and” joins values, the source holds several entries; their conditions need not be identical. Equal entries are not always repeated.
Legend:
Type in all cases: cell-based
[1] = tested on: An + Pf (Aspergillus niger + Penicillium funiculosum); test: Fungal efficacy testing, modified ASTM 5590 (6-well, mixed inoculum, Example 4); details: four weeks; for Total conc, ppm: An + Pf mixed inoculum, NE = no end point at the concentration tested; for % inhibition: An + Pf, at the Total conc
Procedure: (§1) The SI is calculated based on F. C. Kull et.
(§2) A single or blend of biocides was post added into white acrylic latex paint free of biocides to give a maximum total active ingredient/s concentration tested. This paint was then diluted with a biocide free acrylic latex paint at concentrations range of 75 to 12.5% w/w to give desired concentrations for the testing. Depending on the type of biocide blends tested, the total biocides concentrations varies from 200 to 5000 ppm. After biocides addition or dilution each sample was hand mixed for at least a minute until uniformity is achieved. Each of the paint samples as well as a control sample (containing no biocide) were used to prepare films on black plastic-vinyl chloride/acetate copolymer panels (LENETA, Mahwah, N.J.) using a 3 mil bird bar applicator. The panels were thoroughly dried for at least 2 days avoiding direct exposure to sunlight. Square discs (0.5 inch^2, 13 mm^2) were cut out from each panel and were used as the substrate for fungal and algal efficacy tests. This sample size allowed for an agar border when the sample disc was placed into the well of the test plate. Each sample was tested in duplicate
(§3) The appropriate media (BOLD'S 3N for Chlorophytes, BG-11 for Cyanobacteria, and PDA for fungi) were used to support microbial growth. The test plates were maintained at room temp (25° C.-26° C.), in a cycled light-dark environment, for four weeks for algae. Plates for fungal challenge tests were maintained at 30 C for four weeks. At the end of the incubation period the samples were scored for percent area covered by visible microbial growth.
(§4) ASTM 5590 is a standard accelerated test method for determining resistance of various coatings (including paints) to fungal defacement. To accommodate for high-throughput screening, this method was scaled down from petri plates to 6-well plates. To set up the test, an agar plug was placed at the bottom of each well of the sterile 6-well plate. A single coupon was placed with a pair of sterile forceps at the center of the agar plug (on top) with the painted surface facing upwards. Fungal inoculums were prepared by mixing equal concentrations (1×10^6 cfu/ml) and equal volumes (depending on number of samples to be tested) of like growing organisms. Cladosporium herbarum was mixed with Aureobasidium pullulans. Aspergillus niger was mixed with Penicillium funiculosum. Alternaria alternata was mixed with Trichoderma viride. Each well was inoculated with 400 μl of organism mixture (1×10^6 cfu/ml) making sure that the whole surface (paint film as well as the agar surrounding it) was evenly covered. The plates were incubated at 30° C. in presence of moisture, for a period of four weeks. The total percent area covered was evaluated and recorded at the end of each week after the 2nd week and recorded in increments of 5%.

[2] = tested on: Aa + Ap (Alternaria alternata + Aureobasidium pullulans); test: as above; details: four weeks; for Total conc, ppm: Aa + Ap mixed inoculum, NE = no end point at the concentration tested; for % inhibition: Aa + Ap, at the Total conc
Procedure: [The source words this procedure for another target and reports this target under the same test.] as §1, §2, §3, §4

[3] = tested on: Cs + Ck + Nc (Chlorella sp., Chlorella kessleri, Nostoc commune); test: Algal efficacy testing, modified ASTM 5589 (6-well, mixed inoculum, Example 4); details: four weeks; for Total conc, ppm: Cs + Ck + Nc mixed inoculum, NE = no end point at the concentration tested; for % inhibition: Cs + Ck + Nc, at the Total conc
Procedure: as §2, §3
(§5) ASTM 5589 is a standard accelerated test method for determining resistance of various coatings (including paints) to algal defacement. To accommodate for high-throughput screening, this method was scaled down from petri plates to 6-well plates. A single coupon was placed with a pair of sterile forceps at the center of the agar plug (on top) with the painted surface facing upwards. Algal inoculums were prepared by mixing equal concentrations (1×10^6 cfu/ml) and equal volumes (depending on number of samples to be inoculated) of like growing organisms. In this study, Gloeocapsa sp. and Oscillatoria sp. were a mix of cyanobacteria grown on BG-11 media. Chlorella sp., Chlorella kessleri, and Nostoc commune are unicellular chlorphytes that were mixed and grown on Bold media. Trentepohlia aurea, Trentepohlia odorata, and Calotrix parientina are filamentous algae that were mixed and grown on Bold media. Each well was inoculated with 400 μl of organism mixture (1×10^6 cfu/ml) making sure that the whole surface (paint film as well as the agar surrounding it) was evenly covered. The plates were incubated at room temp (25° C.-26° C.) with cyclic exposure to light (OTT-Lite model #OTL4012P, 40 Watt, 26 KLumen) and dark phases, for a period of four weeks. The total area covered was evaluated at the end of each week according to percent area covered in 5% increments. While rating the plates, notations were made for zones of inhibition.

[4] = tested on: Gs + Os (Gloeocapsa sp. + Oscillatoria sp.); test: as above; details: four weeks; for Total conc, ppm: Gs + Os mixed inoculum, NE = no end point at the concentration tested; for % inhibition: Gs + Os, at the Total conc
Procedure: as §2, §3, §5

[5] = tested on: Cp + To + Ta (Calotrix parientina, Trentepohlia odorata, Trentepohlia aurea); test: as above; details: four weeks; for Total conc, ppm: Cp + To + Ta mixed inoculum, NE = no end point at the concentration tested; for % inhibition: Cp + To + Ta, at the Total conc
Procedure: as §2, §3, §5

[6] = tested on: Ch + Tv (Cladosporium herbarum + Trichoderma viride); test: Fungal efficacy testing, modified ASTM 5590 (6-well, mixed inoculum, Example 4); details: four weeks; for Total conc, ppm: Ch + Tv mixed inoculum, NE = no end point at the concentration tested; for % inhibition: Ch + Tv, at the Total conc
Procedure: [The source words this procedure for another target and reports this target under the same test.] as §1, §2, §3, §4

[7] = tested on: Cladosporium herbarum (Ch); test: Fungal efficacy testing, modified ASTM 5590 (12-well, dry paint film); details: at the Total conc, three weeks
Procedure: (§6) Samples of white acrylic latex paint free of biocides were prepared in 50 ml aliquots. Each biocide was post added to give the necessary active ingredient concentration in the paint. The total biocides concentrations tested were 750, 1500, 2500 and 5000 ppm. After biocides addition, each sample was hand mixed for a minimum of 30 sec, followed by a 3 min run on the paint shaker (RED DEVIL). Each of the paint samples as well as a control sample (containing no biocide) were used to prepare films on black plastic-vinyl chloride/acetate copolymer panels (LENETA, Mahwah, N.J.) using a 3 mil bird bar applicator. The panels were thoroughly dried for 5 days avoiding direct exposure to sunlight. Square discs (15 mm^2) were cut out from each panel and were used as the substrate for fungal and algal efficacy tests. This sample size allowed for an agar border when the sample disc was placed into the well of the test plate.
(§7) The appropriate media (BOLD'S 3N for Chlorophytes, BG-11 for Cyanobacteria, and PDA for fungi) were used to support microbial growth. The test plates were maintained at room temp (25° C.-26° C.), in a cycled light-dark environment, for 3 weeks for algae. Plates for fungal challenge tests were maintained at 30C for three weeks. At the end of incubation period the samples were scored for percent area covered by visible microbial growth.
as §4, with “12-well” for “6-well”, “upwards.” for “upwards. Fungal inoculums were prepared by mixing equal concentrations (1×10^6 cfu/ml) and equal volumes (depending on number of samples to be tested) of like growing organisms. Cladosporium herbarum was mixed with Aureobasidium pullulans. Aspergillus niger was mixed with Penicillium funiculosum. Alternaria alternata was mixed with Trichoderma viride.”, “150” for “400”, “organism” for “organism mixture”, “three” for “four”
as §1

Trichoderma viride (Tv) = test: as above; details: three weeks
Procedure: as §6, §7
as §4, with “12-well” for “6-well”, “upwards.” for “upwards. Fungal inoculums were prepared by mixing equal concentrations (1×10^6 cfu/ml) and equal volumes (depending on number of samples to be tested) of like growing organisms. Cladosporium herbarum was mixed with Aureobasidium pullulans. Aspergillus niger was mixed with Penicillium funiculosum. Alternaria alternata was mixed with Trichoderma viride.”, “150” for “400”, “organism” for “organism mixture”, “three” for “four”
as §1

[8] = tested on: Penicillium funiculosum (Pf); test: as above; details: at the Total conc, three weeks
Procedure: as §6, §7
as §4, with “12-well” for “6-well”, “upwards.” for “upwards. Fungal inoculums were prepared by mixing equal concentrations (1×10^6 cfu/ml) and equal volumes (depending on number of samples to be tested) of like growing organisms. Cladosporium herbarum was mixed with Aureobasidium pullulans. Aspergillus niger was mixed with Penicillium funiculosum. Alternaria alternata was mixed with Trichoderma viride.”, “150” for “400”, “organism” for “organism mixture”, “three” for “four”
as §1

[9] = tested on: Alternaria alternata (Aa); test: as above; details: at the Total conc, three weeks
Procedure: as §6, §7
as §4, with “12-well” for “6-well”, “upwards.” for “upwards. Fungal inoculums were prepared by mixing equal concentrations (1×10^6 cfu/ml) and equal volumes (depending on number of samples to be tested) of like growing organisms. Cladosporium herbarum was mixed with Aureobasidium pullulans. Aspergillus niger was mixed with Penicillium funiculosum. Alternaria alternata was mixed with Trichoderma viride.”, “150” for “400”, “organism” for “organism mixture”, “three” for “four”
as §1

[10] = tested on: Stachybotris chartarum (Sc); test: as above; details: three weeks
Procedure: as §6, §7
as §4, with “12-well” for “6-well”, “upwards.” for “upwards. Fungal inoculums were prepared by mixing equal concentrations (1×10^6 cfu/ml) and equal volumes (depending on number of samples to be tested) of like growing organisms. Cladosporium herbarum was mixed with Aureobasidium pullulans. Aspergillus niger was mixed with Penicillium funiculosum. Alternaria alternata was mixed with Trichoderma viride.”, “150” for “400”, “organism” for “organism mixture”, “three” for “four”
as §1

[11] = tested on: Aureobasidium pullulans (Ap); test: as above; details: at the Total conc, three weeks
Procedure: as §6, §7
as §4, with “12-well” for “6-well”, “upwards.” for “upwards. Fungal inoculums were prepared by mixing equal concentrations (1×10^6 cfu/ml) and equal volumes (depending on number of samples to be tested) of like growing organisms. Cladosporium herbarum was mixed with Aureobasidium pullulans. Aspergillus niger was mixed with Penicillium funiculosum. Alternaria alternata was mixed with Trichoderma viride.”, “150” for “400”, “organism” for “organism mixture”, “three” for “four”
as §1

Nostoc commune (Nc) = test: Algal efficacy testing, modified ASTM 5589 (12-well, dry paint film); details: three weeks
Procedure: as §6, §7
(§8) ASTM 5589 is a standard accelerated test method for determining resistance of various coatings (including paints) to algal defacement. To accommodate for high-throughput screening, this method was scaled down from petri plates to 12-well plates. A single coupon was placed with a pair of sterile forceps at the center of the agar plug (on top) with the painted surface facing upwards. Each well was inoculated with 150 μl of organism (1×10^8 cfu/ml) making sure that the whole surface (paint film as well as the agar surrounding it) was evenly covered. The plates were incubated at room temp (25° C.-26° C.) with cyclic exposure to light (OTT-Lite model #OTL4012P, 40 Watt, 26 KLumen) and dark phases, for a period of three weeks. The total area covered was evaluated at the end of each week according to percent area covered in 5% increments. While rating the plates, notations were made for zones of inhibition.
as §1

[12] = tested on: Trentepohlia aurea + Trentepohlia odorata (Ta + To); test: as above; details: three weeks
Procedure: as §6, §7, §8, §1

[13] = tested on: Chlorella sp. + Chlorella kessleri (Cs + Ck); test: as above; details: at the Total conc, three weeks
Procedure: as §6, §7, §8, §1

Gleocapsa sp. (Gs) = test: as above; details: at the Total conc, three weeks
Procedure: as §6, §7, §8, §1

[14] = tested on: Calothrix parientina (Cp); test: as above; details: three weeks
Procedure: as §6, §7, §8, §1

Oscillatoria sp. (Os) = test: as above; details: at the Total conc, three weeks
Procedure: as §6, §7, §8, §1

Aspergillus niger (An) = test: Fungal efficacy testing, modified ASTM 5590 (12-well, dry paint film); details: three weeks
Procedure: as §6, §7
as §4, with “12-well” for “6-well”, “upwards.” for “upwards. Fungal inoculums were prepared by mixing equal concentrations (1×10^6 cfu/ml) and equal volumes (depending on number of samples to be tested) of like growing organisms. Cladosporium herbarum was mixed with Aureobasidium pullulans. Aspergillus niger was mixed with Penicillium funiculosum. Alternaria alternata was mixed with Trichoderma viride.”, “150” for “400”, “organism” for “organism mixture”, “three” for “four”, “5%. […]” for “5%.”

[15] = total biocide in paint taken as minimum inhibitory concentration, 30 C
[16] = total biocide in paint taken as minimum inhibitory concentration

Row | Compound | Total conc, ppm [1] | % inhibition [1] | Total conc, ppm [2] | % inhibition [2] | Total conc, ppm [3] | % inhibition [3] | Total conc, ppm [4] | % inhibition [4] | Total conc, ppm [5] | % inhibition [5] | Total conc, ppm [6] | % inhibition [6] | further results
1 | zinc pyrithione [ZPT] | 1250 ppm | 100% | 2500 ppm | 100% | 1250 ppm | 100% | 625 ppm | 100% | 625 ppm | 100% | – | – | –
2 | CCCCCCCCn1sccc1=O [OIT, 2-n-octyl-4-isothiazolin-3-one] | 450 ppm | 100% | 1350 ppm | 100% | 1350 ppm | 100% | 1350 ppm | 100% | 1350 ppm | 95% | 450 ppm | 50% | –
3 | c1ccc2[nH]c(-c3cscn3)nc2c1 [TBZ, thiabendazole] | 625 ppm | 100% | 3750 ppm | 80% | 1250 ppm | 100% | 1875 ppm | 100% | 1875 ppm | 95% | 2500 ppm | 50% | –
4 | CCCCNC(=O)OCC#CI [IPBC, 3-iodo-2-propynyl-butylcarbamate] | – | – | – | – | – | – | – | – | – | – | – | – | % inhibition [7]: 75% and 80%; % inhibition (Trichoderma viride (Tv); at the Total conc): 90% and 72.5% and 62.5%; Total conc, ppm (Trichoderma viride (Tv); [15]): 750 ppm and 1500 ppm; % inhibition [8]: 97.5% and 60% and 70%; % inhibition [9]: 97.5% and 50% and 100%; % inhibition ([10]; at the Total conc): 82.5%; Total conc, ppm [10, 15]: 2500 ppm; % inhibition [11]: 97.5% and 60% and 87.5%; % inhibition (Nostoc commune (Nc); at the Total conc): 87.5% and 90% and 80%; Total conc, ppm (Nostoc commune (Nc); [16]): 1500 ppm and 2500 ppm; % inhibition ([12]; at the Total conc): 85% and 82.5% and 72.5%; Total conc, ppm [12, 16]: 2500 ppm and 1500 ppm; % inhibition [13]: 97.5% and 90% and 70%; % inhibition (Gleocapsa sp. (Gs)): 95% and 50% and 80%; % inhibition ([14]; at the Total conc): 97.5% and 90% and 80%; Total conc, ppm [14, 16]: 2500 ppm and 5000 ppm; % inhibition (Oscillatoria sp. (Os)): 70% and 62.5% and 77.5%; % inhibition (Aspergillus niger (An); at the Total conc): 87.5% and 80% and 75%; Total conc, ppm (Aspergillus niger (An); [15]): 2500 ppm and 1500 ppm

— patent publication US8592405B2, “Synergistic antimicrobial composition” (Dow Global Technologies LLC, priority 2009, dated 2013)
